# Measured values: patent US20070298099A1, “Liquid and Semi-Solid Pharmaceutical Formulations for Oral Administration of a Substituted Amide” (priority 2004, published 2007)
# What was measured:
# [1] = Solubility of Compound I Polymorph B in various liquid vehicles (suspension equilibrated at least 24 hours, filtered, HPLC); type: physicochemical
# Experimental: Solubility determinations were carried out at room temperature unless otherwise specified. Solubility of N-[1S,2S]-3-(4-chlorophenyl)-2-(3-cyanophenyl)-1-methylpropyl]-2-methyl-2-{[5-trifluoromethyl]pyridine-2-yl}oxy}propanamide (Compound I) as anhydrous unsolvated Polymorph B (such as prepared in Preparatory Example 2) was determined by preparing a suspension of anhydrous unsovated Polymorph B of Compound I in the solvent system. After equilibration for at least 24 hours, the suspension was filtered and the supernatant was analyzed by HPLC. Chromatography was performed on either a Vydac C18 300 A 250×4.6 mm 5 um particle size with in-line Phenomenex Security Guard w/ C18 cartridge or on a Polaris C18-Ether columns or on a Polaris C8-Ether columns using 0.1% phosphoric acid in combination with methanol or acetonitrile depending on HPLC conditions. The compound was detected at […] and assayed using standard curves. The results are presented below in Table 1, calculated based on mg/g vehicle.
# [2] = Oral bioavailability when dosed as a crystalline solid, monkeys; type: in vivo; settings: even when surfactant was included in the formulation
# [3] = Aqueous solubility of Compound I; type: physicochemical
# [4] = Oral bioavailability when dosed as a crystalline solid, dogs; type: in vivo; settings: even when surfactant was included in the formulation
smiles,measurement,setting,value
"C[C@H](NC(=O)C(C)(C)Oc1ccc(C(F)(F)F)cn1)[C@@H](Cc1ccc(Cl)cc1)c1cccc(C#N)c1 [Compound I, N-[1S,2S]-3-[(4-chlorophenyl)-2-(3-cyanophenyl)-1-methylpropyl]-2-methyl-2-{[(5-trifluoromethyl)pyridine-2-yl]oxy}propanamide]","Solubility of Compound I, mg/g of vehicle","[1]; CAPRYOL PGMC, anhydrous unsolvated Polymorph B, room temperature",396 mg/g of vehicle
same,"Solubility of Compound I, mg/g of vehicle","[1]; CREMOPHOR-EL, Polymorph B, room temperature",131 mg/g of vehicle
same,"Solubility of Compound I, mg/g of vehicle","[1]; Corn oil-SPAN 80-CREMOPHOR EL (35:35:30), w/w/w, Polymorph B, room temperature",69 mg/g of vehicle
same,"Solubility of Compound I, mg/g of vehicle","[1]; Corn oil-SPAN 80-TWEEN 80 (30:30:40), w/w/w, Polymorph B, room temperature",78 mg/g of vehicle
same,"Solubility of Compound I, mg/g of vehicle","[1]; Corn oil/Oleic acid/TWEEN 80 (5:2:3), w/w/w, Polymorph B, room temperature",57 mg/g of vehicle
same,"Solubility of Compound I, mg/g of vehicle","[1]; Glycerol, Polymorph B, room temperature",0.4 mg/g of vehicle
same,"Solubility of Compound I, mg/g of vehicle","[1]; IMWITOR 742-MIGLYOL 812-TWEEN 80, (15:65:20) w/w/w, Polymorph B, room temperature",140 mg/g of vehicle
same,"Solubility of Compound I, mg/g of vehicle","[1]; IMWITOR 742-MIGLYOL 812-TWEEN 80, (30:50:20) w/w/w, Polymorph B, room temperature",171 mg/g of vehicle
same,"Solubility of Compound I, mg/g of vehicle","[1]; IMWITOR 742-MIGLYOL 812-TWEEN 80, (40:40:20) w/w/w, Polymorph B, room temperature",187 mg/g of vehicle
same,"Solubility of Compound I, mg/g of vehicle","[1]; IMWITOR 742-MIGLYOL 812-TWEEN 80,(45:45:10) w/w/w, Polymorph B, room temperature",≧191 mg/g of vehicle
same,"Solubility of Compound I, mg/g of vehicle","[1]; IMWITOR 742-Oleic Acid-TWEEN 80-MIGLYOL 812 (2:4:2:2), w/w/w/w, Polymorph B, room temperature",140 mg/g of vehicle
same,"Solubility of Compound I, mg/g of vehicle","[1]; IMWITOR 742-TWEEN 80 (50:50) w/w, Polymorph B, room temperature",184 mg/g of vehicle
same,"Solubility of Compound I, mg/g of vehicle","[1]; IMWITOR 742-TWEEN 80 (60:40), w/w, Polymorph B, room temperature",209 mg/g of vehicle
same,"Solubility of Compound I, mg/g of vehicle","[1]; IMWITOR 742-TWEEN 80, (70:30), w/w, Polymorph B, room temperature",222 mg/g of vehicle
same,"Solubility of Compound I, mg/g of vehicle","[1]; IMWITOR 742-TWEEN 80-Oleic Acid (4:2:4), w/w/w, Polymorph B, room temperature",159 mg/g of vehicle
same,"Solubility of Compound I, mg/g of vehicle","[1]; IMWITOR 742-TWEEN 80-Oleic Acid (5:3:2), w/w/w, Polymorph B, room temperature",178 mg/g of vehicle
same,"Solubility of Compound I, mg/g of vehicle","[1]; IMWITOR 742, at 30 C., anhydrous unsolvated Polymorph B",267 (at 30 C.) mg/g of vehicle
same,"Solubility of Compound I, mg/g of vehicle","[1]; LABRAFIL M1944CS, Polymorph B, room temperature",84 mg/g of vehicle
same,"Solubility of Compound I, mg/g of vehicle","[1]; LABRASOL, Polymorph B, room temperature",202 mg/g of vehicle
same,"Solubility of Compound I, mg/g of vehicle","[1]; MIGLYOL 812-Corn oil-SPAN 80-TWEEN 80 (30:20:25:25), w/w/w, Polymorph B, room temperature",97 mg/g of vehicle
same,"Solubility of Compound I, mg/g of vehicle","[1]; MIGLYOL 812-IMWITOR 742, 1:1 v/v, Polymorph B, room temperature",≧204 mg/g of vehicle
same,"Solubility of Compound I, mg/g of vehicle","[1]; MIGLYOL 812-IMWITOR 742, 4:1 v/v, Polymorph B, room temperature",173 mg/g of vehicle
same,"Solubility of Compound I, mg/g of vehicle","[1]; MIGLYOL 812-LABRASOL/TWEEN80/Oleic acid (40:25:25:10), w/w/w/w, Polymorph B, room temperature",158 mg/g of vehicle
same,"Solubility of Compound I, mg/g of vehicle","[1]; MIGLYOL 812-PECEOL, 1:1 v/v, Polymorph B, room temperature",118 mg/g of vehicle
same,"Solubility of Compound I, mg/g of vehicle","[1]; MIGLYOL 812-TWEEN 80, 1:1 w/w, Polymorph B, room temperature",113 mg/g of vehicle
same,"Solubility of Compound I, mg/g of vehicle","[1]; MIGLYOL 812/Oleic acid/CREMOPHOR EL (5:2:3), w/w/w/w, Polymorph B, room temperature",129 mg/g of vehicle
same,"Solubility of Compound I, mg/g of vehicle","[1]; MIGLYOL 812/Oleic acid/TWEEN 80 (5:2:3), w/w/w/w, Polymorph B, room temperature",120 mg/g of vehicle
same,"Solubility of Compound I, mg/g of vehicle","[1]; MIGLYOL 812, Polymorph B, room temperature",94 mg/g of vehicle
same,"Solubility of Compound I, mg/g of vehicle","[1]; Oleic Acid, Polymorph B, room temperature",20 mg/g of vehicle
same,"Solubility of Compound I, mg/g of vehicle","[1]; Olive oil, Polymorph B, room temperature",18 mg/g of vehicle
same,"Solubility of Compound I, mg/g of vehicle","[1]; PEG400-TWEEN80 (1:1), w/w, Polymorph B, room temperature",138 mg/g of vehicle
same,"Solubility of Compound I, mg/g of vehicle","[1]; PEG400, Polymorph B, room temperature",120 mg/g of vehicle
same,"Solubility of Compound I, mg/g of vehicle","[1]; PG, Polymorph B, room temperature",28 mg/g of vehicle
same,"Solubility of Compound I, mg/g of vehicle","[1]; SPAN 80, Polymorph B, room temperature",45 mg/g of vehicle
same,"Solubility of Compound I, mg/g of vehicle","[1]; Soybean Oil, Polymorph B, room temperature",21 mg/g of vehicle
same,"Solubility of Compound I, mg/g of vehicle","[1]; Soybean oil-SPAN 80-TWEEN 80 (50:25:25), w/w/w, Polymorph B, room temperature",59 mg/g of vehicle
same,"Solubility of Compound I, mg/g of vehicle","[1]; TWEEN 80-LABRASOL-Oleic Acid (25:25:50), w/w/w, Polymorph B, room temperature",120 mg/g of vehicle
same,"Solubility of Compound I, mg/g of vehicle","[1]; TWEEN 80, Polymorph B, room temperature",104 mg/g of vehicle
same,oral bioavailability,[2],very poorly orally bioavailable
same,solubility,[3]; aqueous medium (not further specified),< 0.4 µg/mL
same,solubility,"[3]; aqueous medium, typically",< 0.4 µg/mL
same,oral bioavailability,[4],very poorly orally bioavailable
